One data set deals with T1, ovine COX-2 (Ovis aries, UniProt P79208).
T1 construct: purchased Cayman Chemicals
T1 sequence (P79208 17-603): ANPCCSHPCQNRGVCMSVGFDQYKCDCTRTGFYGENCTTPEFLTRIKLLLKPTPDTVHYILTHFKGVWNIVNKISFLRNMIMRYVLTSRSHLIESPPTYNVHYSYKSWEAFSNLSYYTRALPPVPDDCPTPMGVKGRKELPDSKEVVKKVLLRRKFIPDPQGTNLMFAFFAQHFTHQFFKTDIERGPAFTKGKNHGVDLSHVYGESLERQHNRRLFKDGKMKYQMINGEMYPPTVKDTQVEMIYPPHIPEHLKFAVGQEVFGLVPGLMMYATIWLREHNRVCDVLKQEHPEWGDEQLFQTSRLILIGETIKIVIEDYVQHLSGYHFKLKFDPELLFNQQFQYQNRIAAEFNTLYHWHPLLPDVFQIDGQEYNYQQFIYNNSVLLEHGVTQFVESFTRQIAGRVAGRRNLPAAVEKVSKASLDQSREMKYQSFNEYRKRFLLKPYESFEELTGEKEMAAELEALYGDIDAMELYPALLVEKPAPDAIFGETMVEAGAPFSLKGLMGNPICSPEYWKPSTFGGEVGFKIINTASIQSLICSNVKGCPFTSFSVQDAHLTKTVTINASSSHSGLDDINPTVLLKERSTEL
Kind of data set: COX-2 isoenzyme inhibition (COX Inhibitor Screening Assay, enzyme immunoassay). It counts as biochemical. To be noted: for COX-2 inhibition: 10 µM, incubation 10 min, isolated enzyme. How it is done:
(§1) The impact of the compounds (10 µM) to inhibit the isoenzymes COX-1 and COX-2, respectively, was investigated (Figure 5).
(§2) The inhibition of both isolated isoenzymes, ovine COX-1 and ovine COX-2, respectively, were investigated at a concentration of 10 µM of the respective substances while employing an enzyme immunoassay (COX Inhibitor Screening Assay, Cayman Chemicals, Ann Arbor, MI, USA). The conduction of the assay was performed following the manufacturer’s protocol. Thereby, the isoenzymes were incubated with the particular compounds for exactly 10 min. The values express the mean of duplicate determinations and they represent the mean ± standard deviation of ≥2 independent experiments. The untreated control was set to 0% inhibition.
(§3) Figure 5 Inhibition of isolated ovine COX-1 and COX-2. Values are given as % COX inhibition calculated from initial activity of vehicle treated enzyme and represent the mean ± standard deviation of ≥2 independent experiments.

Data set [1] deals with HT-29 colon carcinoma cells. Kind of data set: Antiproliferative effects, crystal violet cell biomass assay, HT-29. The class given is cell-based. To be noted: for IC50: 72 h incubation, crystal violet. Here is the method: (§4) The growth inhibitory effects of ASA, Zeise’s salt as well as the thereof derived complexes 1a–4a were investigated in vitro against the HT-29 and the MCF-7 cell lines. Thereby, an already published crystal violet assay was employed, in which the cell biomass reduced by the substances was determined as parameter. Cisplatin was applied as positive control.
(§5) The HT-29 colon carcinoma and the MCF-7 breast cancer cell lines were obtained from the cell line service (CLS, Eppelheim, Germany). The HT-29 and the MCF-7 cells were cultivated as a monolayer in Dulbecco’s Modified Eagle Medium (DMEM) containing glucose (4.5 g/L) and lacking phenol red (GE Healthcare, Little Chalfont, UK), supplemented with fetal calf serum (FCS; 10%; Biochrom) and L-glutamine (584 mg/L; GE Healthcare). The cells were cultured in a humidified atmosphere (5% CO2/95% air) at 37 °C and were passaged regularly twice a week. The cell lines were characterized by typing short tandem repeats and routinely monitored for mycoplasma infection.
(§6) The effects of the newly synthesized substances on the cell biomass were determined in vitro while employing a crystal violet assay. The testing was performed following a modified protocol, as previously published. Exponentially growing HT-29 and MCF-7 cells were seeded in 96-well tissue culture plates with a density of 3 × 10^3 and 2 × 10^3 cells, respectively, in 100 µL of completed DMEM per well in quadruples. The plates were kept in a humidified atmosphere (5% CO2/95% air) at 37 °C for 24 h prior to the addition of completed medium containing the vehicle DMF, the positive control Cisplatin, and the compounds to be tested, respectively. After 72 h of incubation, the medium was removed, the cells were washed with PBS and fixed using a solution of glutaraldehyde in PBS (1%, v/v). The cell biomass was examined by staining the chromatin of adherent cells with crystal violet, extraction of the stain with ethanol (70%, v/v) and following measurement of absorbance (λ = 590 nm). The cell viability is given as percentage of cell viability of the vehicle treated control, which was set to 100%. The IC50 values represent the mean ± standard error of mean of ≥2 independent experiments and they were calculated with Prism 7.0 (GraphPad, San Diego, CA, USA) using nonlinear regression and decadal logarithm of the inhibitor versus variable slope equation. The top constraint was set to 100%.

A further data set concerns the target T2, ovine COX-1 (Ovis aries, UniProt P05979).
T2 construct: purchased Cayman Chemicals
T2 sequence (P05979 25-600): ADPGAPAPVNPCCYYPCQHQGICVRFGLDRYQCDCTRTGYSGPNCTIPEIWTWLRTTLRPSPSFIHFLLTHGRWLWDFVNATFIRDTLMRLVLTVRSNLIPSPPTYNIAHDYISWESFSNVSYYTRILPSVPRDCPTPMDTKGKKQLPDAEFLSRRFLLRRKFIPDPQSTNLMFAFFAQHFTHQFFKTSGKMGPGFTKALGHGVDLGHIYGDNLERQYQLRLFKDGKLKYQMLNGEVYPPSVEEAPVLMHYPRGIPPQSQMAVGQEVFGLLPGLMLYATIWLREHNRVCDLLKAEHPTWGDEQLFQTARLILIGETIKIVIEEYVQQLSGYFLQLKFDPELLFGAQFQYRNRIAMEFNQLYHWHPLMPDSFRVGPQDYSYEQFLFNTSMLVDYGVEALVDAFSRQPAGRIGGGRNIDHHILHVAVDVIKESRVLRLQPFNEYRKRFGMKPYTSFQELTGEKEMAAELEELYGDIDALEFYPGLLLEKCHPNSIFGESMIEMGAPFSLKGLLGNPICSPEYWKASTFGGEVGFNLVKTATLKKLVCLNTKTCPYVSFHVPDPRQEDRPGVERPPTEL
Kind of data set: COX-1 isoenzyme inhibition (COX Inhibitor Screening Assay, enzyme immunoassay). It counts as biochemical. The conditions noted are these: 10 µM, incubation 10 min, isolated enzyme. Here is the method: as §1, §2, §3

Data set [2] relates to MCF-7 breast cancer cells. The data set is described as follows: Antiproliferative effects, crystal violet cell biomass assay, MCF-7. It counts as cell-based. To be noted: for IC50: 72 h incubation, crystal violet. How it is done:
as §4, §5, §6

Details of data set [3]: method as in doi:10.1002/zaac.19603050315. The conditions noted are these: degrades in a redox reaction building acetaldehyde and Pt(0); cited from earlier work.
A short description of data set [4]: Stability in other media (aqueous conditions, cell culture medium, DMSO). The class given is physicochemical. The conditions noted are these: degraded immediately after addition.
A short description of data set [5]: Evaluation of stability by capillary electrophoresis. The class given is physicochemical. From the text:
Capillary electrophoresis (CE) was employed in order to determine the stability of the anionic platinum(II) complexes in aqueous media. Therefore, a method was established that allowed the detection of the respective complex and possible degradation products in a short period of time (for further information on the setup see Section 4). Methanol was chosen as a non-coordinating co-solvent for the sample solutions (final amount of methanol: 50%) in order to guarantee the solubility of decomposition products. In contrast to HPLC analysis, it was possible to separate the platinum complex (tm = 6.3 min) from the free ligand (tm = 4.4 min) using a 50 mM sodium tetraborate solution (pH = 9.3) as the background electrolyte (temperature: 25 °C; UV-detection: 230 nm; capillary: fused silica 64.5 cm × 75 µm, effective length 56 cm; 20 kV). […] The reactions followed pseudo-first order kinetics (R^2 ≥ 0.99) under the experimental conditions that were implemented.
A 50 mM sodium tetraborate solution with a pH of 9.3 (adjusted with 1 M NaOH solution) was used as the background electrolyte (BGE). Prior to the first utilization new capillaries were washed with 1 M NaOH solution (45 min), water (45 min) and BGE (45 min). Samples were injected into the capillary via hydrodynamic mode (50 mbar for 2 s). The capillary was thermostated at 25 °C, whereas the autosampler was kept at 37 °C by an external water bath. The separation voltage was 20 kV and the detection wavelength was set to 230 nm. The required run time was 10 min. The capillary was flushed consecutively with 0.1 M NaOH solution (3 min), water (3 min), and BGE (5 min) before each measurement. For the purpose of stability testing, the complexes were dissolved in methanol and diluted 1:1 (v/v) with water, 1.8% aqueous NaCl solution, or double-concentrated PBS to a final concentration of 1 mM. Every experiment was performed in triplicate. The half-lives are presented as mean ± standard deviation. All of the samples, buffers, and washing solutions were membrane filtered (0.22 µm porosity) and degassed by ultrasonication prior to usage.

Setting [6] is: up to a concentration of 100 µM.
Setting [7] is: methanol/water 1:1, 1 mM, 37 °C.

Some results are limits rather than exact numbers.

In the case of `CC(=O)Oc1ccccc1C(=O)O` [ASA, acetylsalicylic acid], at ovine COX-2 (read-out: COX-2 inhibition), the inhibition (commonly the relative decrease from the control value, in per cent) at 10 µM is 1%. Also, the IC50 (as a rule, the concentration needed to halve the response being measured) in data set [1] (Homo sapiens, HT-29) was at least 50 µM; in data set [2] (Homo sapiens, MCF7), at least 50 µM. Moreover, the “antiproliferative activity against HT-29” value in data set [1] (setting [6]) was “inactive”. At ovine COX-1, this molecule showed a COX-1 inhibition of 29.2%. In addition, the “antiproliferative activity against MCF-7” value in data set [2] (setting [6]) is “inactive”.

On to `N.N.[Cl][Pt][Cl]` [Cisplatin, reference compound], for which the half-inhibitory concentration (IC50) in data set [1] stood at 2.6 ± 0.1 µM; in data set [2], 3.7 ± 0.3 µM.

For the molecule `C=C.[Cl-].[Cl-].[Cl-].[K+].[Pt+2]` [Zeise’s salt, potassium trichlorido[ethylene]platinate(II)], on ovine COX-2, the COX-2 inhibition turned out to be 11.3%. Besides, the IC50 in data set [1] and in data set [2] was at least 50 µM in each case. The same molecule yielded a COX-1 inhibition at ovine COX-1 of 83.8%. The “stability under aqueous conditions” value in data set [3] is listed as “very unstable”. The “stability in cell culture medium” value in data set [4] is recorded as “not stable”.

In the case of “Potassium {trichlorido[η^2-(but-3-en-1-yl)-2-acetoxybenzoate]platinate(II)} [Compound 2a]”, on ovine COX-2, the COX-2 inhibition came to 28.7%. Also, in data set [5] (154 mM Cl− in 50% methanol/water, after 168 h), the “recovery of the intact complex” value is recorded as 80.3 ± 3.2%. Also, the “half-live (τ1/2)” value came out at 7.95 ± 0.09 h in data set [5] (PBS pH 7.4 in methanol/water, degraded to Pt-Butene-SA) and 69.6 ± 3.0 h in data set [5] (setting [7]). For the same molecule, the IC50 was 31.4 ± 0.4 µM in data set [1] and 30.1 ± 1.5 µM in data set [2]. The molecule also came in with a COX-1 inhibition on ovine COX-1 of 70.0%.

For “Potassium {trichlorido[η^2-(hex-5-en-1-yl)-2-acetoxybenzoate]platinate(II)} [Compound 4a]”, on ovine COX-2, the COX-2 inhibition is 33.0%. For the same molecule, the “half-live (τ1/2)” value in data set [5] (setting [7]) was found to be 55.4 ± 4.0 h. For the same molecule, the IC50 in data set [1] was determined as 41.4 ± 0.3 µM; in data set [2], 43.7 ± 5.7 µM. On ovine COX-1, this molecule had a COX-1 inhibition of 96.6%.

On to “Potassium {trichlorido[η^2-(pent-4-en-1-yl)-2-acetoxybenzoate]platinate(II)} [Compound 3a]”, for which the COX-2 inhibition on ovine COX-2 is 15.3%. Besides, the “half-live (τ1/2)” value in data set [5] (setting [7]) came out at 73.5 ± 4.7 h. Besides, the figures for the IC50 in data set [1] and in data set [2] were 44.2 ± 3.4 µM and 37.4 ± 2.5 µM, respectively. Also, the COX-1 inhibition on ovine COX-1 was found to be 93.8%.

Take “Potassium {trichlorido[η^2-(prop-2-en-1-yl)-2-acetoxybenzoate]platinate(II)} [Compound 1a]”: the COX-2 inhibition on ovine COX-2 worked out at 17.4%. For the same molecule, the stability in methanol result in data set [5] (methanol, 48 h) is on record as “stable”. Also, in data set [5] (setting [7]), the “half-live (τ1/2)” value was 0.595 ± 0.01 h. The IC50 in data set [1] was 49.7 ± 1.8 µM; in data set [2] it was at least 50 µM. At ovine COX-1, the COX-1 inhibition is recorded as 67.3%.

Values taken from publication PMC6032411, “Synthesis and Biological Evaluation of Zeise’s Salt Derivatives with Acetylsalicylic Acid Substructure” (International Journal of Molecular Sciences, 2018).
